Patent publication US4036984A, “Soil fungi inhibiting agent” (Nissan Chemical Industries, Ltd., priority 1974, dated 1977)

Key:
[1] = test system: Fusarium oxysporum f. cucumerinum; test: Test 1: control of Fusarium wilt of cucumber (powder, pot test); assay type: in vivo; conditions: soil treatment 500 mg (5% powder) and additional irrigation 500 ppm, fourth week of transplanting
Experimental: Test of effect of fungicide on control of Fusarium wilt of cucumber (in case of using powder) Fusarium oxysporum f. cucumerinum which had been cultivated for 1 month at 25° C. on soil-bran medium was air-dried overnight and sifted through a 3mm-mesh sieve. 10g of said culture soil was blended with 600g of sterilized diluvial soil. To 200g of this blended soil were added 1200g of sterilized diluvial soil (containing 2.65 weight % of compost) and 1000mg or 500mg of 5% powder of the invented compound; and these were uniformly mixed in a vat. Next, 1500g of sterilized diluvial soil (containing compost) was placed in a wagner pot of 1/5000 are over which was spread the soil prepared above. Cucumber seedlings of one-leaf stage (variety: "Shimoshirazujibai") which had been cultivated separately in styrol cups in a greenhouse were transplanted into said wagner pot. Each of said cucumber seedlings was singly planted in 200g of the soil placed in said styrol cup and three days before its transplanting, 20 ml of an emulsion of each compound in 300 ppm concentration was irrigated over the soil. In the case of a pot whose soil had been treated with 1000 mg of the compound (5% powder), 14 days after transplanting, 50 ml of an emulsion of the compound in 1000 ppm concentration was additionally irrigated (Test I) and in the case of a pot whose soil had been treated with 500mg of the compound (5% powder), 50 ml of an emulsion of the compound in 500 ppm concentration was additionally irrigated (Test II). The pots were all kept in a greenhouse, and the test was carried out on lots each containing three pots, each pot holding four seedlings.
Every 2 days the withered seedlings were counted and in the fourth week of transplanting, the browning degree of vascular in each seedling was measured; and the effectiveness rating was determined as follows; [formula] (Note)* Fusarium lot is a treated lot containing only Fusarium oxysporum f. cucumerinum.
Sick score is obtained as follows:
Sick score = 3 × a + 2 × b + 1 × c + 0.5 × d + 0 […]
a -- number of withered seedlings b -- number of seedlings in which the browning of vascular has reached the cotyledon part c -- number of seedlings in which the browning of vascular is short of the cotyledon part d -- number of seedlings in which only brown spots have been recognized e -- number of perfectly sound seedlings a + b + c + d + e = 12

[2] = test system: Fusarium oxysporum f. cucumerinum; test: Fungicidal test by agar dilution method (colony diameter); assay type: cell-based; conditions: for diameter of the colony: 4 days, 25° C., PSA medium; for growth / inhibition of colony compared with the control: 250-1000 ppm
Experimental: Reference -- Fungicidal Test by Agar Dilution Method
100 mg of the invented compound was taken in a 30 ml conical flask, to which a drop of 1:1 mixture of Solpol 2680 (surface-active agent produced by Toho Kagaku) and xylene (about 25 mg), and 1 ml of acetone were added to dissolve therein. On the other hand, 9 ml of sterilized water separately was further added to emulsify, thereby yielding an emulsion of 10,000 ppm concentration. From this emulsion an emulsion of 5,000 ppm and one of 2,500 ppm were prepared through two times dilution.
In a 100 ml conical flask, 3 ml portion each of these emulsions was taken; 27 ml of potato-sucrose-agar (PSA) medium, at 50°-60° C. was added and uniformly blended. Ten ml of the obtained mixture was poured and hardened on a 10 cm-diameter petri dish.
Meanwhile, a colony of Fusarium oxysporum f. cucumerinum separately cultivated on potato-sucrose-agar (PSA) medium was stamped out by a 4mm-diameter cork-borer and inoculated on the above-mentioned mixed medium. After 4 days of cultivation in a chamber of 25° C., the diameter of the colony was measured, the results being summarized in Table 2. A case of the colony not having grown is indicated by the sign (-).

[3] = test system: Fusarium oxysporum f. cucumerinum; test: Test 2: control of Fusarium wilt of cucumber (emulsion, pot test); assay type: in vivo; conditions: emulsion irrigated 300 ppm, then 1000 ppm twice, third week of transplanting
Experimental: Test of effect of fungicide on control of Fusarium wilt of cucumber (in case of using emulsion).
Fusarium oxysporum f. cucumerinum which had been cultivated for 1 month at 25° C. on soil-bran medium was air-dried overnight and then sifted through a 3 mm-mesh sieve. 15g of said culture soil and 600g of sterilized diluvial soil were blended together.
Next, 1500g of sterilized diluvial soil (containing compost) was placed in a Wagner pot of 1/5000 are, over which the soil prepared above was spread. Cucumber seedlings of one-leaf stage (variety: "Shimoshirazujibai") which had been separately cultivated in styrol cups in a greenhouse were transplanted into said Wagner pot. Each of said cucumber seedlings was singly grown in a styrol cup with 200g of soil. Seven days before it was transplanted, 20 ml of an emulsion of each compound in 300 ppm was irrigated over the soil. Just after transplanting and two weeks after transplanting 50 ml of an emulsion of the compound in 1000 ppm was additionally irrigated. All pots were kept in the greenhouse, the test being carried out on lots each containing three pots and each pot holding four seedlings.
In the third week of transplanting all the seedlings were checked for the browning degree of vascular and in the same way as in Test 1, the effectiveness rating and the sick score were determined.

[4] = test system: Fusarium oxysporum f. cucumerinum; test: Test 6: control of Fusarium wilt of cucumber by spraying stalks and leaves; assay type: in vivo; conditions: stalks and leaves sprayed with 2000 ppm, third week of transplanting
Experimental: Test of effect of fungicide on control of Fusarium wilt of cucumber, by spraying stalks and leaves with compound.
Fusarium oxysporum f. cucumerinum which had been cultivated for 1 month at 25° C. on soil-bran medium was air-dried overnight and then sifted through a 3mm-mesh sieve.
Next, 1500 g of sterilized diluvial soil (containing compost) was placed in a Wagner pot of 1/5000a, over which the soil prepared above was spread. Cucumber seedlings of one-leaf stage (variety: "Shimoshiraznjibai") which had been separately grown in styrol cups in a greenhouse were transplanted into said Wagner pot. Each of said cucumber seedlings was singly grown in a styrol cup with 200 g of soil. Seven days before it was transplanted, it was sprayed with a 2000 ppm solution of each compound until the stalks and leaves were completely wet.
Just after transplanting and at the end of each week after transplanting, the seedling was sprinkled until completely wet with a 2000 ppm solution of the compound. All the pots were kept in the greenhouse. The test was carried out on lots of three pots each with each pot holding four seedlings.
In the third week of transplanting all the seedlings were checked for the browning of vascular and in the same way as in Test 1.

[5] = test system: Fusarium oxysporum f. cucumerinum; test: Fungicidal test by agar dilution method (colony diameter); assay type: cell-based; conditions: 2.5, 5 and 10 ppm
[6] = test system: Micrococcus pyogenes var. aureus; conditions: 2000 ppm; cited from earlier work
[7] = test system: genus Bacillus; conditions: 2000 ppm; cited from earlier work
[8] = test system: Escherichia coli; conditions: 2000 ppm; cited from earlier work
[9] = test system: rats; conditions: cited from earlier work
[10] = in vivo; cited from earlier work
[11] = test system: pests like fleas, mosquitoes etc.; conditions: cited from earlier work

Structure (SMILES) | diameter of the colony ([2]; 250 ppm) | diameter of the colony ([2]; 500 ppm) | diameter of the colony ([2]; 1000 ppm) | also measured
CCC(=O)OCCOc1ccccc1 [Compound No. 3] | 25 mm | 20 mm | 9 mm | Effectiveness Rating II [1]: 32
CSCC(=O)OCCOc1ccccc1 [Compound No. 67, β-phenoxyethyl S-methylglycolate] |  |  |  | Effectiveness Rating [3]: 89
C=CC(=O)OCCOc1ccccc1 [Compound No. 23, β-phenoxyethylacrylate] |  |  |  | Effectiveness Rating, 2000 ppm [4]: 30
CCCCNC(=O)n1c(NC(=O)OC)nc2ccccc21 [Benomyl, methyl-1-(butylcarbamonyl)-2-benzimidazolcarbamate, reference compound] |  |  |  | Effectiveness Rating II [1]: 44; growth of the colony [5]: no growth of the colony was evident
CCCCCCCCCC(=O)OCCOc1ccccc1 [compound 12] | 46 mm | 41 mm | 38 mm | growth / inhibition of colony compared with the control [2]: same growth as the control
CCCCCCC(=O)OCCOc1ccccc1 [compound 10] | 33 mm | 28 mm | 24 mm | 
CC(C)CC(=O)OCCOc1ccccc1 [Compound No. 8] | 24 mm | 19 mm | 15 mm | Effectiveness Rating II [1]: 50
CCCCCC(=O)OCCOc1ccccc1 [compound 9] | 33 mm | 30 mm | 22 mm | 
CC(C)C(=O)OCCOc1ccccc1 [Compound No. 5] | 30 mm | 23 mm | 17 mm | bactericidal effect [6]: non-bactericidal; bactericidal effect [7]: non-bactericidal; bactericidal effect [8]: non-bactericidal
CCCC(=O)OCCOc1ccccc1 [Compound No. 4] | 32 mm | 27 mm | 22 mm | Effectiveness Rating II [1]: 30
CCC(C)C(=O)OCCOc1ccccc1 (stereo not shown) [Compound No. 7] | 25 mm | 23 mm | 16 mm | 
CCCCC(=O)OCCOc1ccccc1 [Compound No. 6] | 31 mm | 26 mm | 22 mm | 
CC(C)C(=O)C(=O)OCCOc1ccccc1 [Compound No. 45, β-phenoxyethyl 2-oxo-3-methyl-butanoate] |  |  |  | Effectiveness Rating, 2000 ppm [4]: 76
CC(CC(=O)OCCOc1ccccc1)CC(C)(C)C (stereo not shown) [compound 14] | 38 mm | 38 mm | 35 mm | 
CC(C)(O)CC(=O)OCCOc1ccccc1 [compound 37] |  |  |  | Effectiveness Rating, 2000 ppm [4]: 40
CCCCCCCC(=O)OCCOc1ccccc1 [compound 11] | 36 mm | 32 mm | 29 mm | 
CCCCCCCCCCCC(=O)OCCOc1ccccc1 [compound 13] | 49 mm | 45 mm | 40 mm | growth / inhibition of colony compared with the control [2]: same growth as the control
O=COCCOc1ccccc1 [Compound No. 1] | 40 mm | 30 mm | 10 mm | 
CC(=O)OCCOc1ccccc1 [Compound No. 2] | 37 mm | 26 mm |  | Effectiveness Rating II [1]: 80; LD50, acute oral toxicity [9]: 4900 mg/kg; skin cancer [10]: not likely to cause skin cancer; Effectiveness Rating, 2000 ppm [4]: 67; repellency [11]: feebly repellant
CC(C)=CC(=O)OCCSc1ccccc1 [compound 74] |  |  |  | Effectiveness Rating, 2000 ppm [4]: 62
CC(C)(C)C(=O)OCCOc1ccccc1 [compound 15] | 19 mm | 17 mm | 13 mm | 
